Data from publication PMC9516332 (Frontiers in Oncology, 2022).

Columns and labels:
Experiment in all cases: Kinase panel profiling at 1 µmol/L (MSA or IMAP), percentage inhibition
Format in all cases: biochemical
[1] = target: panel of 255 wild-type kinases (Homo sapiens, UniProt P53355); conditions: kinase DAPK1; 1 µmol/L single concentration; read-out: %-inhibition at 1 µmol/L, DAPK1
[2] = target: panel of 255 wild-type kinases (Homo sapiens, UniProt O75676); conditions: MSK2; 1 µmol/L single concentration; read-out: %-inhibition, MSK2
[3] = target: T1, panel of 255 wild-type kinases (Homo sapiens, UniProt P51817); conditions: kinase PRKX; 1 µmol/L single concentration; read-out: %-inhibition at 1 µmol/L, PRKX
T1 sequence (P51817 1-358): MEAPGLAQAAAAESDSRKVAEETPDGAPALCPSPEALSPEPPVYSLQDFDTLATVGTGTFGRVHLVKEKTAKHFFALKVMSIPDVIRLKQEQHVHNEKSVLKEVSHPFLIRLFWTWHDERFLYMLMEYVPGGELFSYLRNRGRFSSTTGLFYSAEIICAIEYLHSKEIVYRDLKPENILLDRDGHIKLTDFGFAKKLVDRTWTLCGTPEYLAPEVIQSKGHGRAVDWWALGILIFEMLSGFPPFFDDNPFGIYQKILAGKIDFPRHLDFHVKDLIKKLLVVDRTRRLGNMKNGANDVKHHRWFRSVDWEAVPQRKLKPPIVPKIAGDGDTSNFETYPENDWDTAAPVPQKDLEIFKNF

[4] = target: panel of 255 wild-type kinases (Homo sapiens, UniProt P78368); conditions: kinase CK1γ2; 1 µmol/L single concentration; read-out: %-inhibition at 1 µmol/L, CK1γ2
[5] = target: panel of 255 wild-type kinases (Homo sapiens, UniProt Q86Z02); conditions: kinase HIPK1; 1 µmol/L single concentration; read-out: %-inhibition at 1 µmol/L, HIPK1
[6] = target: panel of 255 wild-type kinases (Homo sapiens, UniProt Q16620); conditions: kinase TRKB; 1 µmol/L single concentration; read-out: %-inhibition at 1 µmol/L, TRKB
[7] = target: T2, panel of 255 wild-type kinases (Homo sapiens, UniProt P51813); conditions: BMX kinase assay; 1 µmol/L single concentration; read-out: %-inhibition BMX
T2 sequence (P51813 1-675): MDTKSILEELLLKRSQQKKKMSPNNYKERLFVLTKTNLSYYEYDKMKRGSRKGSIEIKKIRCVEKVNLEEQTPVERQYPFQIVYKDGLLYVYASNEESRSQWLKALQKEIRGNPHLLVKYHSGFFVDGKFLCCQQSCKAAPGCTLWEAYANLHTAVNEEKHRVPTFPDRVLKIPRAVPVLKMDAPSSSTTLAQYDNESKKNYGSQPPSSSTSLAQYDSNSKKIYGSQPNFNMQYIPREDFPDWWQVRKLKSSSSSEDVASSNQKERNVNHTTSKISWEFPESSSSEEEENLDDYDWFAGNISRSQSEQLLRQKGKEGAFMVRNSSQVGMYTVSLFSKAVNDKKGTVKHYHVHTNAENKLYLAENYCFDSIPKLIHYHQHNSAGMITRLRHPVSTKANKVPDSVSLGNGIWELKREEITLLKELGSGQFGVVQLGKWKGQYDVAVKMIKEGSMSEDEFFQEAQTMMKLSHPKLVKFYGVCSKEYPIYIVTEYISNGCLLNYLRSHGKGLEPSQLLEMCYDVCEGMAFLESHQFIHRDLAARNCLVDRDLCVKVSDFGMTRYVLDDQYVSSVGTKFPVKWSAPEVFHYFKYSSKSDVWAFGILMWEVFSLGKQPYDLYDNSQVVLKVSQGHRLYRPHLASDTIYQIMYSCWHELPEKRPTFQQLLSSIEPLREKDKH

[8] = target: T3, panel of 255 wild-type kinases (Homo sapiens, UniProt P30530); conditions: AXL kinase assay; 1 µmol/L single concentration; read-out: %-inhibition AXL
T3 sequence (P30530 26-894): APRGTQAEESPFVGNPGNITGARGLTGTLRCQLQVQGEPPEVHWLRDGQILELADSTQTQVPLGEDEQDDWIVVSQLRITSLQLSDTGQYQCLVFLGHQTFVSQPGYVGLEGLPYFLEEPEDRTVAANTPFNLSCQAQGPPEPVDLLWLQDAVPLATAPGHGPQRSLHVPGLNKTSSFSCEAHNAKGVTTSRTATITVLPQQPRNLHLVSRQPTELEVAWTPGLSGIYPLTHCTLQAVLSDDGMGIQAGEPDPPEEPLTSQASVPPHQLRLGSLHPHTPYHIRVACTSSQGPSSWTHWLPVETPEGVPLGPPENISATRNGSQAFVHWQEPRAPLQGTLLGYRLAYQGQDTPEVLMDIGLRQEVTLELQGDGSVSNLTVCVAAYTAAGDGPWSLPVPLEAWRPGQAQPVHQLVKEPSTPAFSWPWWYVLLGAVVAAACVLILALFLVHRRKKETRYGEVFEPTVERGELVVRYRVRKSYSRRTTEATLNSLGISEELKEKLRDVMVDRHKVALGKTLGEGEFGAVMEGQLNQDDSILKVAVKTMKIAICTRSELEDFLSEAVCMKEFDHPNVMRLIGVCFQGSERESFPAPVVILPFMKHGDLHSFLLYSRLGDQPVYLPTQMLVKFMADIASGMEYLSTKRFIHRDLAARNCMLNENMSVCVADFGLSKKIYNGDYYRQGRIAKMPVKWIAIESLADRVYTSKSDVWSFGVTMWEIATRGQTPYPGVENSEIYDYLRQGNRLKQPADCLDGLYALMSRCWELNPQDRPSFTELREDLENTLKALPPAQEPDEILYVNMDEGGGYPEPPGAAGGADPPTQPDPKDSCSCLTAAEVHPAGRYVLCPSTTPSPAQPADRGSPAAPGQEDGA

SMILES	inhibition at 1 µM [1]	inhibition at 1 µM [2]	inhibition at 1 µM [3]	inhibition at 1 µM [4]	inhibition at 1 µM [5]	inhibition at 1 µM [6]	inhibition at 1 µM [7]	inhibition at 1 µM [8]
COc1cc2ncnc(Nc3ccc(F)c(Cl)c3)c2cc1NC(=O)/C=C/CN1CCCCC1 [dacomitinib]	-7%	6%	0.677%	-1.63%	3.42%	6%	12%	40%
Cn1cc(-c2cc3c(N4CCN(c5ncc([C@@](C)(N)c6ccc(F)cc6)cn5)CC4)ncnn3c2)cn1 [avapritinib]	0.0958%	5%	37%	7%	1.58%	48%	21%	37%
CCn1c(=O)c(-c2cc(NC(=O)Nc3ccccc3)c(F)cc2Br)cc2cnc(NC)cc21 [ripretinib]	-10%	3%	0.705%	-2.31%	-5.27%	64%	60%	4%
